Measurements from PubChem BioAssay (NCI).
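Cells were grown in 96-well plates and exposed to each compound for 48 hours at five concentrations; endpoints were interpolated linearly between bracketing concentrations, or set to the highest concentration if not reached. TGI: concentration producing complete growth inhibition.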

Columns and labels:
Test in all cases: NCI tumour cell line growth inhibition, 48 h
HOP-62 NSCLC = tested on: HOP-62 NSCLC
XF 498 CNS = tested on: XF 498 CNS
HOP-18 NSCLC = tested on: HOP-18 NSCLC
OVCAR-3 ovarian = tested on: OVCAR-3 ovarian
K-562 leukemia = tested on: K-562 leukemia
SNB-78 CNS = tested on: SNB-78 CNS
DLD-1 colon = tested on: DLD-1 colon
SW-620 colon = tested on: SW-620 colon
UACC-257 melanoma = tested on: UACC-257 melanoma
RPMI-8226 leukemia = tested on: RPMI-8226 leukemia
SK-MEL-28 melanoma = tested on: SK-MEL-28 melanoma
NCI-H460 lung = tested on: NCI-H460 lung
NCI-H23 lung = tested on: NCI-H23 lung
HCC-2998 colon = tested on: HCC-2998 colon
M14 melanoma = tested on: M14 melanoma
A549 NSCLC = tested on: A549 NSCLC
RXF 393 renal = tested on: RXF 393 renal
SF-268 CNS = tested on: SF-268 CNS
786-0 renal = tested on: 786-0 renal
OVCAR-8 ovarian = tested on: OVCAR-8 ovarian
SN12C renal = tested on: SN12C renal
CCRF-CEM leukemia = tested on: CCRF-CEM leukemia
CAKI-1 renal = tested on: CAKI-1 renal
COLO 205 colon = tested on: COLO 205 colon
M19-MEL melanoma = tested on: M19-MEL melanoma
UACC-62 melanoma = tested on: UACC-62 melanoma
IGROV1 ovarian = tested on: IGROV1 ovarian
MOLT-4 leukemia = tested on: MOLT-4 leukemia
ACHN renal = tested on: ACHN renal
MALME-3M melanoma = tested on: MALME-3M melanoma
KM20L2 colon = tested on: KM20L2 colon
SK-OV-3 ovarian = tested on: SK-OV-3 ovarian
U251 CNS = tested on: U251 CNS
HCT-15 colon = tested on: HCT-15 colon
SK-MEL-2 melanoma = tested on: SK-MEL-2 melanoma
HL-60(TB) leukemia = tested on: HL-60(TB) leukemia
SF-539 CNS = tested on: SF-539 CNS
RXF-631 renal = tested on: RXF-631 renal
UO-31 renal = tested on: UO-31 renal
HCT-116 colon = tested on: HCT-116 colon
DMS 114 small cell lung = tested on: DMS 114 small cell lung
SNB-19 CNS = tested on: SNB-19 CNS
A498 renal = tested on: A498 renal
EKVX NSCLC = tested on: EKVX NSCLC
SF-295 CNS = tested on: SF-295 CNS
SNB-75 CNS = tested on: SNB-75 CNS
LXFL 529 NSCLC = tested on: LXFL 529 NSCLC
KM12 colon = tested on: KM12 colon
DMS 273 small cell lung = tested on: DMS 273 small cell lung
SK-MEL-5 melanoma = tested on: SK-MEL-5 melanoma
OVCAR-4 ovarian = tested on: OVCAR-4 ovarian
TK-10 renal = tested on: TK-10 renal
NCI-H522 lung = tested on: NCI-H522 lung
SR leukemia = tested on: SR leukemia
HOP-92 NSCLC = tested on: HOP-92 NSCLC
NCI-H226 lung = tested on: NCI-H226 lung
OVCAR-5 ovarian = tested on: OVCAR-5 ovarian
LOX IMVI melanoma = tested on: LOX IMVI melanoma
HT29 colon = tested on: HT29 colon

O=C(O)C1(C(=O)O)CC1
TGI (HOP-62 NSCLC): > 100 µM | TGI (XF 498 CNS): > 100 µM | TGI (HOP-18 NSCLC): > 100 µM | TGI (OVCAR-3 ovarian): > 100 µM | TGI (K-562 leukemia): > 100 µM | TGI (SNB-78 CNS): > 100 µM | TGI (DLD-1 colon): > 100 µM | TGI (SW-620 colon): > 100 µM | TGI (UACC-257 melanoma): > 100 µM | TGI (RPMI-8226 leukemia): > 100 µM | TGI (SK-MEL-28 melanoma): > 100 µM | TGI (NCI-H460 lung): > 100 µM | TGI (NCI-H23 lung): > 100 µM | TGI (HCC-2998 colon): > 100 µM | TGI (M14 melanoma): > 100 µM | TGI (A549 NSCLC): > 100 µM | TGI (RXF 393 renal): > 100 µM | TGI (SF-268 CNS): > 100 µM | TGI (786-0 renal): > 100 µM | TGI (OVCAR-8 ovarian): > 100 µM | TGI (SN12C renal): > 100 µM | TGI (CCRF-CEM leukemia): > 100 µM | TGI (CAKI-1 renal): > 100 µM | TGI (COLO 205 colon): > 100 µM | TGI (M19-MEL melanoma): > 100 µM | TGI (UACC-62 melanoma): > 100 µM | TGI (IGROV1 ovarian): > 100 µM | TGI (MOLT-4 leukemia): > 100 µM | TGI (ACHN renal): > 100 µM | TGI (MALME-3M melanoma): > 100 µM | TGI (KM20L2 colon): > 100 µM | TGI (SK-OV-3 ovarian): > 100 µM | TGI (U251 CNS): > 100 µM | TGI (HCT-15 colon): > 100 µM | TGI (SK-MEL-2 melanoma): > 100 µM | TGI (HL-60(TB) leukemia): > 100 µM | TGI (SF-539 CNS): > 100 µM | TGI (RXF-631 renal): > 100 µM | TGI (UO-31 renal): > 100 µM | TGI (HCT-116 colon): > 100 µM | TGI (DMS 114 small cell lung): > 100 µM | TGI (SNB-19 CNS): > 100 µM | TGI (A498 renal): > 100 µM | TGI (EKVX NSCLC): > 100 µM | TGI (SF-295 CNS): > 100 µM | TGI (SNB-75 CNS): > 100 µM | TGI (LXFL 529 NSCLC): > 100 µM | TGI (KM12 colon): > 100 µM | TGI (DMS 273 small cell lung): > 100 µM | TGI (SK-MEL-5 melanoma): > 100 µM | TGI (OVCAR-4 ovarian): > 100 µM | TGI (TK-10 renal): > 100 µM | TGI (NCI-H522 lung): > 100 µM

NC(=O)c1ncn2c1NCC1OC2C(O)C1O (stereo not drawn)
TGI (HOP-62 NSCLC): > 100 µM | TGI (XF 498 CNS): > 100 µM | TGI (HOP-18 NSCLC): > 100 µM | TGI (OVCAR-3 ovarian): > 100 µM | TGI (K-562 leukemia): > 100 µM | TGI (SNB-78 CNS): > 100 µM | TGI (DLD-1 colon): > 100 µM | TGI (SR leukemia): > 100 µM | TGI (SW-620 colon): > 100 µM | TGI (UACC-257 melanoma): > 100 µM | TGI (SK-MEL-28 melanoma): > 100 µM | TGI (NCI-H23 lung): > 100 µM | TGI (HCC-2998 colon): > 100 µM | TGI (M14 melanoma): > 100 µM | TGI (A549 NSCLC): > 100 µM | TGI (RXF 393 renal): > 100 µM | TGI (SF-268 CNS): > 100 µM | TGI (786-0 renal): > 100 µM | TGI (OVCAR-8 ovarian): > 100 µM | TGI (HOP-92 NSCLC): > 100 µM | TGI (SN12C renal): > 100 µM | TGI (CCRF-CEM leukemia): > 100 µM | TGI (CAKI-1 renal): > 100 µM | TGI (COLO 205 colon): > 100 µM | TGI (M19-MEL melanoma): > 100 µM | TGI (NCI-H226 lung): > 100 µM | TGI (UACC-62 melanoma): > 100 µM | TGI (IGROV1 ovarian): > 100 µM | TGI (OVCAR-5 ovarian): > 100 µM | TGI (MOLT-4 leukemia): > 100 µM | TGI (ACHN renal): > 100 µM | TGI (MALME-3M melanoma): > 100 µM | TGI (KM20L2 colon): > 100 µM | TGI (SK-OV-3 ovarian): > 100 µM | TGI (U251 CNS): > 100 µM | TGI (SK-MEL-2 melanoma): > 100 µM | TGI (HL-60(TB) leukemia): > 100 µM | TGI (SF-539 CNS): > 100 µM | TGI (RXF-631 renal): > 100 µM | TGI (LOX IMVI melanoma): > 100 µM | TGI (HT29 colon): > 100 µM | TGI (UO-31 renal): > 100 µM | TGI (HCT-116 colon): > 100 µM | TGI (DMS 114 small cell lung): > 100 µM | TGI (SNB-19 CNS): > 100 µM | TGI (A498 renal): > 100 µM | TGI (EKVX NSCLC): > 100 µM | TGI (SF-295 CNS): > 100 µM | TGI (SNB-75 CNS): > 100 µM | TGI (LXFL 529 NSCLC): > 100 µM | TGI (KM12 colon): > 100 µM | TGI (DMS 273 small cell lung): > 100 µM | TGI (SK-MEL-5 melanoma): > 100 µM | TGI (OVCAR-4 ovarian): > 100 µM | TGI (TK-10 renal): > 100 µM | TGI (NCI-H522 lung): > 100 µM

Cc1ccc(Nc2nc3c(s2)C(=O)c2ccccc2C3=O)cc1
TGI (HOP-62 NSCLC): 20 µM | TGI (XF 498 CNS): 3.76 µM | TGI (HOP-18 NSCLC): 3.19 µM | TGI (OVCAR-3 ovarian): 4.87 µM | TGI (K-562 leukemia): 7.19 µM | TGI (SNB-78 CNS): 5.82 µM | TGI (DLD-1 colon): 4.26 µM | TGI (UACC-257 melanoma): 3.2 µM | TGI (RPMI-8226 leukemia): 3.74 µM | TGI (SK-MEL-28 melanoma): 2.99 µM | TGI (NCI-H23 lung): 4.33 µM | TGI (HCC-2998 colon): 3.58 µM | TGI (M14 melanoma): 3.25 µM | TGI (A549 NSCLC): 4.86 µM | TGI (SF-268 CNS): 5.66 µM | TGI (786-0 renal): 3.37 µM | TGI (OVCAR-8 ovarian): 5.07 µM | TGI (HOP-92 NSCLC): 14.3 µM | TGI (SN12C renal): 3.4 µM | TGI (CCRF-CEM leukemia): 5.04 µM | TGI (CAKI-1 renal): 3 µM | TGI (COLO 205 colon): 26.9 µM | TGI (M19-MEL melanoma): 1.05 µM | TGI (NCI-H226 lung): 33.9 µM | TGI (UACC-62 melanoma): 3.92 µM | TGI (IGROV1 ovarian): 3.73 µM | TGI (OVCAR-5 ovarian): 3.5 µM | TGI (MOLT-4 leukemia): 3.83 µM | TGI (ACHN renal): 3.21 µM | TGI (MALME-3M melanoma): 3.39 µM | TGI (KM20L2 colon): 38.9 µM | TGI (SK-OV-3 ovarian): 40.1 µM | TGI (U251 CNS): 3.42 µM | TGI (HCT-15 colon): 4.29 µM | TGI (SK-MEL-2 melanoma): 3.94 µM | TGI (HL-60(TB) leukemia): 0.602 µM | TGI (SF-539 CNS): 17.7 µM | TGI (RXF-631 renal): 3.8 µM | TGI (LOX IMVI melanoma): 3.11 µM | TGI (HT29 colon): 11.2 µM | TGI (UO-31 renal): 4.12 µM | TGI (DMS 114 small cell lung): 3.28 µM | TGI (SNB-19 CNS): 3.33 µM | TGI (A498 renal): 30.9 µM | TGI (EKVX NSCLC): 16 µM | TGI (SF-295 CNS): 2.99 µM | TGI (SNB-75 CNS): 5.03 µM | TGI (LXFL 529 NSCLC): 3 µM | TGI (KM12 colon): 3.44 µM | TGI (DMS 273 small cell lung): 3.75 µM | TGI (SK-MEL-5 melanoma): 3.43 µM | TGI (OVCAR-4 ovarian): 2.89 µM | TGI (TK-10 renal): 18.9 µM | TGI (NCI-H522 lung): 3.25 µM
